# ChEMBL document CHEMBL1201861, “Genomics of Drug Sensitity in Cancer screening data, Wellcome Trust Sanger Institute”
# Tested on: HC-1;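 further: growth inhibition of HC-1 cells measured by a cell viability assay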
# Assay: cells
# Assay type: functional, cell-based, Homo sapiens
# Conditions: Homo sapiens, HC-1
# Description: SANGER: Inhibition of human HC-1 cell growth in a cell viability assay.
row,Structure (SMILES),IC50 [µM]
1,Cc1ccc(-c2c(C(=O)CCl)n(CCCO)c3ncnc(N)c23)cc1,> 4

# Tested on: CGTH-W-1;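 further: growth inhibition of human CGTH-W-1 cells measured by cell viability assay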
# Assay: cells
# Assay type: functional, cell-based, Homo sapiens
# Conditions: Homo sapiens, CGTH-W-1
# Description: SANGER: Inhibition of human CGTH-W-1 cell growth in a cell viability assay.
row,Structure (SMILES),IC50 [µM]
1,Cc1ccc(-c2c(C(=O)CCl)n(CCCO)c3ncnc(N)c23)cc1,> 4

# Tested on: OVCAR-4;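 further: growth inhibition of human OVCAR-4 cells, measured with a cell viability assay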
# Assay: cells
# Assay type: functional, cell-based, Homo sapiens
# Conditions: Homo sapiens, OVCAR-4
# Description: SANGER: Inhibition of human OVCAR-4 cell growth in a cell viability assay.
row,Structure (SMILES),IC50 [µM]
1,Cc1ccc(-c2c(C(=O)CCl)n(CCCO)c3ncnc(N)c23)cc1,> 4

# Tested on: MSTO-211H
# Assay: cells
# Assay type: functional, cell-based, Homo sapiens
# Conditions: Homo sapiens, MSTO-211H
# Description: SANGER: Inhibition of human MSTO-211H cell growth in a cell viability assay.
row,Structure (SMILES),IC50 [µM]
1,Cc1ccc(-c2c(C(=O)CCl)n(CCCO)c3ncnc(N)c23)cc1,> 4

# Tested on: NOMO-1;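 further: growth inhibition of human NOMO-1 cells measured by a cell viability assay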
# Assay: cells
# Assay type: functional, cell-based, Homo sapiens
# Conditions: Homo sapiens, NOMO-1
# Description: SANGER: Inhibition of human NOMO-1 cell growth in a cell viability assay.
row,Structure (SMILES),IC50 [µM]
1,Cc1ccc(-c2c(C(=O)CCl)n(CCCO)c3ncnc(N)c23)cc1,> 4

# Tested on: HCC2157;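 further: growth inhibition of the cancer cell line, read out as cell viability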
# Assay: cells
# Assay type: functional, cell-based, Homo sapiens
# Conditions: Homo sapiens, HCC2157
# Description: SANGER: Inhibition of human HCC2157 cell growth in a cell viability assay.
row,Structure (SMILES),IC50 [µM]
1,Cc1ccc(-c2c(C(=O)CCl)n(CCCO)c3ncnc(N)c23)cc1,> 4

# Tested on: MOLT-16;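 further: growth inhibition of human MOLT-16 cells, read out with a cell viability assay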
# Assay: cells
# Assay type: functional, cell-based, Homo sapiens
# Conditions: Homo sapiens, MOLT-16
# Description: SANGER: Inhibition of human MOLT-16 cell growth in a cell viability assay.
row,Structure (SMILES),IC50 [µM]
1,Cc1ccc(-c2c(C(=O)CCl)n(CCCO)c3ncnc(N)c23)cc1,> 4

# Tested on: NCI-H1650;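 further: growth inhibition of human NCI-H1650 cells measured by a cell viability assay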
# Assay: cells
# Assay type: functional, cell-based, Homo sapiens
# Conditions: Homo sapiens, NCI-H1650
# Description: SANGER: Inhibition of human NCI-H1650 cell growth in a cell viability assay.
row,Structure (SMILES),IC50 [µM]
1,Cc1ccc(-c2c(C(=O)CCl)n(CCCO)c3ncnc(N)c23)cc1,> 4

# Tested on: LS-1034
# Assay: cells
# Assay type: functional, cell-based, Homo sapiens
# Conditions: Homo sapiens, LS-1034
# Description: SANGER: Inhibition of human LS-1034 cell growth in a cell viability assay.
row,Structure (SMILES),IC50 [µM]
1,Cc1ccc(-c2c(C(=O)CCl)n(CCCO)c3ncnc(N)c23)cc1,> 4

# Tested on: COLO-824
# Assay: cells
# Assay type: functional, cell-based, Homo sapiens
# Conditions: Homo sapiens, COLO-824
# Description: SANGER: Inhibition of human COLO-824 cell growth in a cell viability assay.
row,Structure (SMILES),IC50 [µM]
1,Cc1ccc(-c2c(C(=O)CCl)n(CCCO)c3ncnc(N)c23)cc1,> 4

# Tested on: IA-LM;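 further: cell viability assay measuring growth inhibition of human IA-LM cells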
# Assay: cells
# Assay type: functional, cell-based, Homo sapiens
# Conditions: Homo sapiens, IA-LM
# Description: SANGER: Inhibition of human IA-LM cell growth in a cell viability assay.
row,Structure (SMILES),IC50 [µM]
1,Cc1ccc(-c2c(C(=O)CCl)n(CCCO)c3ncnc(N)c23)cc1,3.21

# Tested on: SW 962;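 further: growth inhibition of human SW962 cells, read out by a cell viability assay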
# Assay: cells
# Assay type: functional, cell-based, Homo sapiens
# Conditions: Homo sapiens, SW 962
# Description: SANGER: Inhibition of human SW962 cell growth in a cell viability assay.
row,Structure (SMILES),IC50 [µM]
1,Cc1ccc(-c2c(C(=O)CCl)n(CCCO)c3ncnc(N)c23)cc1,3.66

# Tested on: D283 Med
# Assay: cells
# Assay type: functional, cell-based, Homo sapiens
# Conditions: Homo sapiens, D283 Med
# Description: SANGER: Inhibition of human D-283MED cell growth in a cell viability assay.
row,Structure (SMILES),IC50 [µM]
1,Cc1ccc(-c2c(C(=O)CCl)n(CCCO)c3ncnc(N)c23)cc1,> 4

# Tested on: KP-N-YS;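 further: cell viability assay measuring inhibition of cell line growth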
# Assay: cells
# Assay type: functional, cell-based, Homo sapiens
# Conditions: Homo sapiens, KP-N-YS
# Description: SANGER: Inhibition of human KP-N-YS cell growth in a cell viability assay.
row,Structure (SMILES),IC50 [µM]
1,Cc1ccc(-c2c(C(=O)CCl)n(CCCO)c3ncnc(N)c23)cc1,> 4

# Tested on: HAL-01;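 further: growth inhibition of human HAL-01 cells, read out with a cell viability assay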
# Assay: cells
# Assay type: functional, cell-based, Homo sapiens
# Conditions: Homo sapiens, HAL-01
# Description: SANGER: Inhibition of human HAL-01 cell growth in a cell viability assay.
row,Structure (SMILES),IC50 [µM]
1,Cc1ccc(-c2c(C(=O)CCl)n(CCCO)c3ncnc(N)c23)cc1,> 4

# Tested on: L-428
# Assay: cells
# Assay type: functional, cell-based, Homo sapiens
# Conditions: Homo sapiens, L-428
# Description: SANGER: Inhibition of human L-428 cell growth in a cell viability assay.
row,Structure (SMILES),IC50 [µM]
1,Cc1ccc(-c2c(C(=O)CCl)n(CCCO)c3ncnc(N)c23)cc1,> 4

# Tested on: A3-KAW;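 further: growth inhibition of human A3-KAW cells, read out with a cell viability assay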
# Assay: cells
# Assay type: functional, cell-based, Homo sapiens
# Conditions: Homo sapiens, A3-KAW
# Description: SANGER: Inhibition of human A3-KAW cell growth in a cell viability assay.
row,Structure (SMILES),IC50 [µM]
1,Cc1ccc(-c2c(C(=O)CCl)n(CCCO)c3ncnc(N)c23)cc1,> 4

# Tested on: MFH-ino;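 further: growth inhibition of human MFH-ino cells, read out by a cell viability assay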
# Assay: cells
# Assay type: functional, cell-based, Homo sapiens
# Conditions: Homo sapiens, MFH-ino
# Description: SANGER: Inhibition of human MFH-ino cell growth in a cell viability assay.
row,Structure (SMILES),IC50 [µM]
1,Cc1ccc(-c2c(C(=O)CCl)n(CCCO)c3ncnc(N)c23)cc1,> 4

# Tested on: BB65-RCC;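 further: growth inhibition of the cell line, measured with a cell viability assay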
# Assay: cells
# Assay type: functional, cell-based, Homo sapiens
# Conditions: Homo sapiens, BB65-RCC
# Description: SANGER: Inhibition of human BB65-RCC cell growth in a cell viability assay.
row,Structure (SMILES),IC50 [µM]
1,Cc1ccc(-c2c(C(=O)CCl)n(CCCO)c3ncnc(N)c23)cc1,> 4

# Tested on: TGW;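 further: growth inhibition of human TGW cells, read out with a cell viability assay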
# Assay: cells
# Assay type: functional, cell-based, Homo sapiens
# Conditions: Homo sapiens, TGW
# Description: SANGER: Inhibition of human TGW cell growth in a cell viability assay.
row,Structure (SMILES),IC50 [µM]
1,Cc1ccc(-c2c(C(=O)CCl)n(CCCO)c3ncnc(N)c23)cc1,> 4

# Tested on: OCUB-M;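 further: growth inhibition of the cancer cell line, read out through a cell viability assay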
# Assay: cells
# Assay type: functional, cell-based, Homo sapiens
# Conditions: Homo sapiens, OCUB-M
# Description: SANGER: Inhibition of human OCUB-M cell growth in a cell viability assay.
row,Structure (SMILES),IC50 [µM]
1,Cc1ccc(-c2c(C(=O)CCl)n(CCCO)c3ncnc(N)c23)cc1,> 4

# Tested on: NEC8;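 further: growth inhibition of human NEC8 cells, read out by a cell viability assay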
# Assay: cells
# Assay type: functional, cell-based, Homo sapiens
# Conditions: Homo sapiens, NEC8
# Description: SANGER: Inhibition of human NEC8 cell growth in a cell viability assay.
row,Structure (SMILES),IC50 [µM]
1,Cc1ccc(-c2c(C(=O)CCl)n(CCCO)c3ncnc(N)c23)cc1,> 4

# Tested on: BE-13;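 further: growth inhibition of human BE-13 cells, measured with a cell viability assay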
# Assay: cells
# Assay type: functional, cell-based, Homo sapiens
# Conditions: Homo sapiens, BE-13
# Description: SANGER: Inhibition of human BE-13 cell growth in a cell viability assay.
row,Structure (SMILES),IC50 [µM]
1,Cc1ccc(-c2c(C(=O)CCl)n(CCCO)c3ncnc(N)c23)cc1,> 4

# Tested on: EW-24;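 further: human EW-24 cancer cell line, growth inhibition read out via a cell viability assay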
# Assay: cells
# Assay type: functional, cell-based, Homo sapiens
# Conditions: Homo sapiens, EW-24
# Description: SANGER: Inhibition of human EW-24 cell growth in a cell viability assay.
row,Structure (SMILES),IC50 [µM]
1,Cc1ccc(-c2c(C(=O)CCl)n(CCCO)c3ncnc(N)c23)cc1,> 4

# Tested on: NCI-H747;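 further: growth inhibition of human NCI-H747 cells, read out by a cell viability assay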
# Assay: cells
# Assay type: functional, cell-based, Homo sapiens
# Conditions: Homo sapiens, NCI-H747
# Description: SANGER: Inhibition of human NCI-H747 cell growth in a cell viability assay.
row,Structure (SMILES),IC50 [µM]
1,Cc1ccc(-c2c(C(=O)CCl)n(CCCO)c3ncnc(N)c23)cc1,> 4

# Tested on: TE-11;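 further: growth inhibition of human TE-11 cells, read out by a cell viability assay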
# Assay: cells
# Assay type: functional, cell-based, Homo sapiens
# Conditions: Homo sapiens, TE-11
# Description: SANGER: Inhibition of human TE-11 cell growth in a cell viability assay.
row,Structure (SMILES),IC50 [µM]
1,Cc1ccc(-c2c(C(=O)CCl)n(CCCO)c3ncnc(N)c23)cc1,> 4

# Tested on: A101D;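 further: growth inhibition of the cell line, measured with a viability assay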
# Assay: cells
# Assay type: functional, cell-based, Homo sapiens
# Conditions: Homo sapiens, A101D
# Description: SANGER: Inhibition of human A101D cell growth in a cell viability assay.
row,Structure (SMILES),IC50 [µM]
1,Cc1ccc(-c2c(C(=O)CCl)n(CCCO)c3ncnc(N)c23)cc1,3.83

# Tested on: TE-5;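 further: inhibition of cell growth, read out by a cell viability assay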
# Assay: cells
# Assay type: functional, cell-based, Homo sapiens
# Conditions: Homo sapiens, TE-5
# Description: SANGER: Inhibition of human TE-5 cell growth in a cell viability assay.
row,Structure (SMILES),IC50 [µM]
1,Cc1ccc(-c2c(C(=O)CCl)n(CCCO)c3ncnc(N)c23)cc1,> 4

# Tested on: GR-ST
# Assay: cells
# Assay type: functional, cell-based, Homo sapiens
# Conditions: Homo sapiens, GR-ST
# Description: SANGER: Inhibition of human GR-ST cell growth in a cell viability assay.
row,Structure (SMILES),IC50 [µM]
1,Cc1ccc(-c2c(C(=O)CCl)n(CCCO)c3ncnc(N)c23)cc1,> 4

# Tested on: J-RT3-T3-5;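 further: cell viability assay measuring growth inhibition of human J-RT3-T3-5 cells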
# Assay: cells
# Assay type: functional, cell-based, Homo sapiens
# Conditions: Homo sapiens, J-RT3-T3-5
# Description: SANGER: Inhibition of human J-RT3-T3-5 cell growth in a cell viability assay.
row,Structure (SMILES),IC50 [µM]
1,Cc1ccc(-c2c(C(=O)CCl)n(CCCO)c3ncnc(N)c23)cc1,> 4

# Tested on: MPP-89;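 further: growth inhibition of human MPP-89 cells, read out with a cell viability assay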
# Assay: cells
# Assay type: functional, cell-based, Homo sapiens
# Conditions: Homo sapiens, MPP-89
# Description: SANGER: Inhibition of human MPP-89 cell growth in a cell viability assay.
row,Structure (SMILES),IC50 [µM]
1,Cc1ccc(-c2c(C(=O)CCl)n(CCCO)c3ncnc(N)c23)cc1,> 4

# Tested on: A704;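 further: growth inhibition of human A704 cells, read out with a cell viability assay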
# Assay: cells
# Assay type: functional, cell-based, Homo sapiens
# Conditions: Homo sapiens, A704
# Description: SANGER: Inhibition of human A704 cell growth in a cell viability assay.
row,Structure (SMILES),IC50 [µM]
1,Cc1ccc(-c2c(C(=O)CCl)n(CCCO)c3ncnc(N)c23)cc1,> 4

# Tested on: SF-268;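 further: growth inhibition of SF-268 cells determined with a cell viability assay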
# Assay: cells
# Assay type: functional, cell-based, Homo sapiens
# Conditions: Homo sapiens, SF-268
# Description: SANGER: Inhibition of human SF268 cell growth in a cell viability assay.
row,Structure (SMILES),IC50 [µM]
1,Cc1ccc(-c2c(C(=O)CCl)n(CCCO)c3ncnc(N)c23)cc1,> 4

# Tested on: SK-N-FI;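 further: cell viability assay measuring growth inhibition of human SK-N-FI cells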
# Assay: cells
# Assay type: functional, cell-based, Homo sapiens
# Conditions: Homo sapiens, SK-N-FI
# Description: SANGER: Inhibition of human SK-N-FI cell growth in a cell viability assay.
row,Structure (SMILES),IC50 [µM]
1,Cc1ccc(-c2c(C(=O)CCl)n(CCCO)c3ncnc(N)c23)cc1,> 4

# Tested on: NCI-H720;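 further: growth inhibition of human NCI-H720 cells determined by a cell viability assay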
# Assay: cells
# Assay type: functional, cell-based, Homo sapiens
# Conditions: Homo sapiens, NCI-H720
# Description: SANGER: Inhibition of human NCI-H720 cell growth in a cell viability assay.
row,Structure (SMILES),IC50 [µM]
1,Cc1ccc(-c2c(C(=O)CCl)n(CCCO)c3ncnc(N)c23)cc1,> 4

# Tested on: NCI-H1395;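 further: cell viability assay read-out quantifying reduced proliferation of human NCI-H1395 cells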
# Assay: cells
# Assay type: functional, cell-based, Homo sapiens
# Conditions: Homo sapiens, NCI-H1395
# Description: SANGER: Inhibition of human NCI-H1395 cell growth in a cell viability assay.
row,Structure (SMILES),IC50 [µM]
1,Cc1ccc(-c2c(C(=O)CCl)n(CCCO)c3ncnc(N)c23)cc1,> 4

# Tested on: BB30-HNC;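 further: growth inhibition of the cultured cell line, read out by a cell viability assay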
# Assay: cells
# Assay type: functional, cell-based, Homo sapiens
# Conditions: Homo sapiens, BB30-HNC
# Description: SANGER: Inhibition of human BB30-HNC cell growth in a cell viability assay.
row,Structure (SMILES),IC50 [µM]
1,Cc1ccc(-c2c(C(=O)CCl)n(CCCO)c3ncnc(N)c23)cc1,1.82

# Tested on: GOTO;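 further: growth inhibition of GOTO cells, read out by a cell viability assay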
# Assay: cells
# Assay type: functional, cell-based, Homo sapiens
# Conditions: Homo sapiens, GOTO
# Description: SANGER: Inhibition of human GOTO cell growth in a cell viability assay.
row,Structure (SMILES),IC50 [µM]
1,Cc1ccc(-c2c(C(=O)CCl)n(CCCO)c3ncnc(N)c23)cc1,> 4

# Tested on: 8-MG-BA;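 further: growth inhibition of 8-MG-BA cells, read out with a cell viability assay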
# Assay: cells
# Assay type: functional, cell-based, Homo sapiens
# Conditions: Homo sapiens, 8-MG-BA
# Description: SANGER: Inhibition of human 8-MG-BA cell growth in a cell viability assay.
row,Structure (SMILES),IC50 [µM]
1,Cc1ccc(-c2c(C(=O)CCl)n(CCCO)c3ncnc(N)c23)cc1,> 4

# Tested on: SK-MEL-1;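 further: growth inhibition of human SK-MEL-1 cells, read out by a cell viability assay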
# Assay: cells
# Assay type: functional, cell-based, Homo sapiens
# Conditions: Homo sapiens, SK-MEL-1
# Description: SANGER: Inhibition of human SK-MEL-1 cell growth in a cell viability assay.
row,Structure (SMILES),IC50 [µM]
1,Cc1ccc(-c2c(C(=O)CCl)n(CCCO)c3ncnc(N)c23)cc1,> 4

# Tested on: IST-MEL1;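 further: growth inhibition of the cell line, read out with a cell viability assay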
# Assay: cells
# Assay type: functional, cell-based, Homo sapiens
# Conditions: Homo sapiens, IST-MEL1
# Description: SANGER: Inhibition of human IST-MEL1 cell growth in a cell viability assay.
row,Structure (SMILES),IC50 [µM]
1,Cc1ccc(-c2c(C(=O)CCl)n(CCCO)c3ncnc(N)c23)cc1,> 4

# Tested on: ES6;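 further: growth inhibition of human ES6 cells, read out with a cell viability assay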
# Assay: cells
# Assay type: functional, cell-based, Homo sapiens
# Conditions: Homo sapiens, ES6
# Description: SANGER: Inhibition of human ES6 cell growth in a cell viability assay.
row,Structure (SMILES),IC50 [µM]
1,Cc1ccc(-c2c(C(=O)CCl)n(CCCO)c3ncnc(N)c23)cc1,> 4

# Tested on: NCI-H82;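 further: growth inhibition of NCI-H82 cells, measured with a cell viability readout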
# Assay: cells
# Assay type: functional, cell-based, Homo sapiens
# Conditions: Homo sapiens, NCI-H82
# Description: SANGER: Inhibition of human NCI-H82 cell growth in a cell viability assay.
row,Structure (SMILES),IC50 [µM]
1,Cc1ccc(-c2c(C(=O)CCl)n(CCCO)c3ncnc(N)c23)cc1,> 4

# Tested on: GCIY;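 further: growth inhibition of the human GCIY cell line, read out by a cell viability assay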
# Assay: cells
# Assay type: functional, cell-based, Homo sapiens
# Conditions: Homo sapiens, GCIY
# Description: SANGER: Inhibition of human GCIY cell growth in a cell viability assay.
row,Structure (SMILES),IC50 [µM]
1,Cc1ccc(-c2c(C(=O)CCl)n(CCCO)c3ncnc(N)c23)cc1,> 4

# Tested on: NB6;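 further: growth inhibition of NB6 cells, read out by a cell viability assay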
# Assay: cells
# Assay type: functional, cell-based, Homo sapiens
# Conditions: Homo sapiens, NB6
# Description: SANGER: Inhibition of human NB6 cell growth in a cell viability assay.
row,Structure (SMILES),IC50 [µM]
1,Cc1ccc(-c2c(C(=O)CCl)n(CCCO)c3ncnc(N)c23)cc1,> 4

# Tested on: L-363
# Assay: cells
# Assay type: functional, cell-based, Homo sapiens
# Conditions: Homo sapiens, L-363
# Description: SANGER: Inhibition of human L-363 cell growth in a cell viability assay.
row,Structure (SMILES),IC50 [µM]
1,Cc1ccc(-c2c(C(=O)CCl)n(CCCO)c3ncnc(N)c23)cc1,> 4

# Tested on: ES4;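 further: growth inhibition of human ES4 cells, read out by a cell viability assay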
# Assay: cells
# Assay type: functional, cell-based, Homo sapiens
# Conditions: Homo sapiens, ES4
# Description: SANGER: Inhibition of human ES4 cell growth in a cell viability assay.
row,Structure (SMILES),IC50 [µM]
1,Cc1ccc(-c2c(C(=O)CCl)n(CCCO)c3ncnc(N)c23)cc1,> 4
